In ChEMBL document CHEMBL1143792, “Natural dibenzoxazepinones from leaves of Carex distachya: Structural elucidation and radical scavenging activity” (Bioorg Med Chem Lett, 2007):

Assays:
[1] = Nitric oxide radical scavenging activity at 0.1 mg/ml; type: functional
[2] = DPPH radical scavenging activity at 0.1 mg/ml; type: functional

SMILES | Activity [1] | Activity [2]
O=C1O[C@H]([C@@H](O)CO)C(O)=C1O | 66% | –
COc1cc2c(c(OC)c1C)C(=O)Nc1ccc(O)c(C)c1O2 | 63% | 25%
COc1cc2c(c(O)c1C)C(=O)Nc1ccc(O)cc1O2 | 59% | –
